Each structure is given as a SMILES string.

b-Raf (V600E), sequence (P15056 whole entry V600E): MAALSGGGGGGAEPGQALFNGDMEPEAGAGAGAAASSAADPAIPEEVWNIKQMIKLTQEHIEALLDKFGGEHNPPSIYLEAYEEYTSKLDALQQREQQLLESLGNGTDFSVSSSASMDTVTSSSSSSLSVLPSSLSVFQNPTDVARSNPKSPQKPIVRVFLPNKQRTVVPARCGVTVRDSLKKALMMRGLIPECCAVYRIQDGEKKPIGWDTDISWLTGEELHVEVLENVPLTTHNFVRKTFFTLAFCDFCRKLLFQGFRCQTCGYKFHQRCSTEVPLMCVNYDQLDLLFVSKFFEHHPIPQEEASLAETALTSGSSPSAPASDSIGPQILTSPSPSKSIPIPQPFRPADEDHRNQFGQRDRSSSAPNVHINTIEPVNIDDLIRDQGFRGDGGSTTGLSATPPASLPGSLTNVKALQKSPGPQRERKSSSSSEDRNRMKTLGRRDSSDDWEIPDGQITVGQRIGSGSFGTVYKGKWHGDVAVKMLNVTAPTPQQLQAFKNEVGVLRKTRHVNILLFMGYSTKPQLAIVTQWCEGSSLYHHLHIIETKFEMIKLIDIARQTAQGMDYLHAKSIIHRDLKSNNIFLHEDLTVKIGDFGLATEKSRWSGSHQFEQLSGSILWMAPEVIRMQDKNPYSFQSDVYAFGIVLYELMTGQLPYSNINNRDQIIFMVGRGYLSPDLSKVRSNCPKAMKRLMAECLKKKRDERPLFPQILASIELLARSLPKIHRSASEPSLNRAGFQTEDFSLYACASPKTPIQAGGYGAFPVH

One test concerns the target b-Raf (V600E) (Homo sapiens (Human), UniProt P15056, V600E). Conditions: read-out: b-Raf IC-50; AlphaScreen, 60 min pre-incubation, 3 hours reaction.
Text: Sf9 cells co-expressing both proteins were lysed and subjected to immobilized nickel chromatography and eluted with Imidazole. A second column (StrepII binding column) was used and eluted with desthiobiotin. Protein Tags were removed using Prescission enzyme and the protein was further purified using a flowthrough step to remove tags.
Full length MEK1 with an inactivating K97R ATP binding site mutation is utilized as a RAF substrate. The MEK1 cDNA was subcloned with an N-terminal (his)6 tag into a vector for E. Coli expression. The MEK1 substrate was purified from E. Coli lysate by nickel affinity chromatography followed by anion exchange. The final MEK1 preparation was biotinylated (Pierce EZ-Link Sulfo-NHS-LC-Biotin) and concentrated.
Assay buffer: 50 mM Tris, pH 7.5, 15 mM MgCl2, 0.01% Bovine Serum Albumin (BSA), 1 mM dithiothreitol (DTT) Stop buffer: 60 mM ethylenediaminetetraacetic acid (EDTA), 0.01% Tween® 20
biotinylated Mek, kinase dead
384 well low volume assay plates (White Greiner® plates)
biotinylated Mek, Kinase dead approximately 10 nM
Pre-incubation time with compounds 60 minutes at room temperature
Reaction time 1 or 3 hours at room temperature
The plate was incubated for 60 minutes at room temperature.
The additions were carried out under dark conditions to protect the detection beads from light. A lid was placed on top of the plate and incubated for 1 hour at room temperature, then the luminescence was read on a PerkinElmer Envision instrument.
For `CCC(F)(F)c1cc(C(=O)Nc2cnc(C)c(-c3cc(N4CCOCC4)c(=O)n(C)n3)c2)ccn1` [Example 679, 2-(1,1-difluoropropyl)-N-(6-methyl-5-(1-methyl-5-morpholino-6-oxo-1,6-dihydropyridazin-3-yl)pyridin-3-yl)isonicotinamide], the IC50 was 8.1 nM.

Take `CCNc1nc(-c2cc(NC(=O)c3cccc(C(F)(F)F)c3)cnc2C)cc(N2CCOCC2)n1` [Example 716, N-(5-(2-(ethylamino)-6-morpholinopyrimidin-4-yl)-6-methylpyridin-3-yl)-3-(trifluoromethyl)benzamide]: the IC50 was determined as 1.3 nM.

`CCOc1nnc(-c2cc(NC(=O)c3ccnc(C4CC4)c3)cnc2C)cc1N1CCOCC1` [Example 612, 2-cyclopropyl-N-(5-(6-ethoxy-5-morpholinopyridazin-3-yl)-6-methylpyridin-3-yl)isonicotinamide]: the IC50 was found to be 1.8 nM.

As for `Cc1ccc(C(=O)Nc2cccc(OC(F)(F)F)c2)cc1-c1cc(N2CCOCC2)c(=O)n(C)c1` [Example 441, 4-methyl-3-(1-methyl-5-morpholino-6-oxo-1,6-dihydropyridin-3-yl)-N-(3-(trifluoromethoxy)phenyl)benzamide], the IC50 stood at 33.2 nM.

As for `Cc1ccc(NC(=O)c2ccnc(C(C)(F)F)c2)cc1-c1cc(N2C3CCC2COC3)n(C)c(=O)c1` [Example 527, N-(3-(6-(3-oxa-8-azabicyclo[3.2.1]octan-8-yl)-1-methyl-2-oxo-1,2-dihydropyridin-4-yl)-4-methylphenyl)-2-(1,1-difluoroethyl)isonicotinamide], the IC50 is 5.6 nM.

`CCn1c(N2CCOCC2)cc(-c2cc(NC(=O)c3ccnc(C(F)(F)CC)c3)ccc2C)cc1=O` [Example 520, 2-(1,1-difluoropropyl)-N-(3-(1-ethyl-6-morpholino-2-oxo-1,2-dihydropyridin-4-yl)-4-methylphenyl)isonicotinamide]: the IC50 worked out at 2.1 nM.

On to `Cc1ccc(NC(=O)c2cc(C(F)(F)F)ccn2)cc1-c1cc(N2CCOCC2)c(OCCO)nn1` [Example 586, N-(3-(6-(2-hydroxyethoxy)-5-morpholinopyridazin-3-yl)-4-methylphenyl)-4-(trifluoromethyl)picolinamide], for which the IC50 was determined as 1 nM.

The same test, now with this note: read-out: b-Raf IC-50; AlphaScreen, 60 min pre-incubation, reaction 3 hours at room temperature.
Turning to `Cc1ccc(NC(=O)c2cccc(C(F)F)c2)cc1-c1cc(NCCO)nc(N2CCOCC2)c1` [Example 1036, 3-(difluoromethyl)-N-(3-(2-((2-hydroxyethyl)amino)-6-morpholinopyridin-4-yl)-4-methylphenyl)benzamide], the IC50 was 0.54 nM.

As for `Cc1ncc(NC(=O)c2cnnc(C(F)(F)F)c2)cc1-c1cc(NCCO)nc(N2CCOCC2)c1` [Example 1051, N-(2′-((2-hydroxyethyl)amino)-2-methyl-6′-morpholino-[3,4′-bipyridin]-5-yl)-6-(trifluoromethyl)pyridazine-4-carboxamide], the IC50 is 8.19 nM.

For `Cc1ccc(NC(=O)c2cnnc(C(C)(C)C#N)c2)cc1-c1cc(NCCO)nc(N2CCOCC2)c1` [Example 1049, 6-(2-cyanopropan-2-yl)-N-(3-(2-((2-hydroxyethyl)amino)-6-morpholinopyridin-4-yl)-4-methylphenyl)pyridazine-4-carboxamide], the IC50 came to 7.69 nM.

The same test, now with this note: read-out: b-Raf IC-50; Table 2; AlphaScreen, 3 hours reaction.
For the compound `Cc1ccc(NC(=O)c2ccnc(C3CC3)c2)cc1-c1cc(N2CCOCC2)c(=O)n(C)c1` [Example 354, 2-cyclopropyl-N-(4-methyl-3-(1-methyl-5-morpholino-6-oxo-1,6-dihydropyridin-3-yl)phenyl)isonicotinamide], the IC50 amounted to 1 nM.

For `Cc1ccc(NC(=O)c2ccnc(C(C)(C)C#N)c2)cc1-c1cc(N2CCOCC2)c(=O)n(C)n1` [Example 191, 2-(2-cyanopropan-2-yl)-N-(4-methyl-3-(1-methyl-5-morpholino-6-oxo-1,6-dihydropyridazin-3-yl)phenyl)isonicotinamide], the IC50 is 5.4 nM.

Source of the values: patent publication US9694016B2 (Novartis AG, priority 2013, dated 2017).
